Patent EP4741395A1, “NOVEL COMPOUND SENSITIVE TO NITROGEN MONOXIDE AND PHARMACEUTICAL COMPOSITION COMPRISING SAME” (Omniamed Co. Ltd, priority 2023, dated 2025)

What was measured:
IFN-γ = IFN-γ reduction activity in Concanavalin A-treated splenocytes (quantitative ELISA); type: cell-based, C57BL/6 mouse; conditions: Mus musculus, Splenocyte, Concanavalin A 5 µg/mL, 72 hours, read-out: IFN-γ Reduction Activity (%) (Mean±SD)
Experimental: (§1) A spleen was isolated from an 8-week-old C57BL/6 mouse, and splenocytes were isolated using a physical method.
(§2) The separated splenocytes were diluted to a concentration of 5×10^6 cells/mL in a RPMI 1640 medium including 10% FBS, 100 U/mL of penicillin and 100 µg/mL of streptomycin, and the diluted splenocytes were dispensed at 500 µL/well into a 48-well plate and 100 µL/well into a 96-well plate, and cultured for 72 hours in an incubator. The splenocytes were treated with Concanavalin A (5 µg/mL) when dispensed to induce an immune response, and herein, […] of the pharmaceutical composition including the compound according to each of the Examples was also added thereto. After 72 hours, the supernatant was collected, and the level of remaining NO was checked through a Griess assay, and calculated by the following Equation 4.
NO is one of important inflammatory mediators, and may increase the level of inflammatory cytokine. Concanavalin A (5 µg/mL), which induces an immune response in splenocytes, and the compound of each of Examples were treated in a concentration-dependent manner to check whether the level of IFN-γ, a representative inflammatory cytokine, was reduced. The supernatant was collected 72 hours after the treatment, and analyzed using a quantitative enzyme-linked immunosorbent assay (Quantitative-ELISA).

JAK 1 = JAK 1 (Homo sapiens, UniProt P23458); assay: JAK Human TK kinase enzymatic radiometric assay (Eurofins), JAK 1; conditions: value close to 100 indicates low JAK activity of the compound
JAK 1, sequence (P23458 whole entry): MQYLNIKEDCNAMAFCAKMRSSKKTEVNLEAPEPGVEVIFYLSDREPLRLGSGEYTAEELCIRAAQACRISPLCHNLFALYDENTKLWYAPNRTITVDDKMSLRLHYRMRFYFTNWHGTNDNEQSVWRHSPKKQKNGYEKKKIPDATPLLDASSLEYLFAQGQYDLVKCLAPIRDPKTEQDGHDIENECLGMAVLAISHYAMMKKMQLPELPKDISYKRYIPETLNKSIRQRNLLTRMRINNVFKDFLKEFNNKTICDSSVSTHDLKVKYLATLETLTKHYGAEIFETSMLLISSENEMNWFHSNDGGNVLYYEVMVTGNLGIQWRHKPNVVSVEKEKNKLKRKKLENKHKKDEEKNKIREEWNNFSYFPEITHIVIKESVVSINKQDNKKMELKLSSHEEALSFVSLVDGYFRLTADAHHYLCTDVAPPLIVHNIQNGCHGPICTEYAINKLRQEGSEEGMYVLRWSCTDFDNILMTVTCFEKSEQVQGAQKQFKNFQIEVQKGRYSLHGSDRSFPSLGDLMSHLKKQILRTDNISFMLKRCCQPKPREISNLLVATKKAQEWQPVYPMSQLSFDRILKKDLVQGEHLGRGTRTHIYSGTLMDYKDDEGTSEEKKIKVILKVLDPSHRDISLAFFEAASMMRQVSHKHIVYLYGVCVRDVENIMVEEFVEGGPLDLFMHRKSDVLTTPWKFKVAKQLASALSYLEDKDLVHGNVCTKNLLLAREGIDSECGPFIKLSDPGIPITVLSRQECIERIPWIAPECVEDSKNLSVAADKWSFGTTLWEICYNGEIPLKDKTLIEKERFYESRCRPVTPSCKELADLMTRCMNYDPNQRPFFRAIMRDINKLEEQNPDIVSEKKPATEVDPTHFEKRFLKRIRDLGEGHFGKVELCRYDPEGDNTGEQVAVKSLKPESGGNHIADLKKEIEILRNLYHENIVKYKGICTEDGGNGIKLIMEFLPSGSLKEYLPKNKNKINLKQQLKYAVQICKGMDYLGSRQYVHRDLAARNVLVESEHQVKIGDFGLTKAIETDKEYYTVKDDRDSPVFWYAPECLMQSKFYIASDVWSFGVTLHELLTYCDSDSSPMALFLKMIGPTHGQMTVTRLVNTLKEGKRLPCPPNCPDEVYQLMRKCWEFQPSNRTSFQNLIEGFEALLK
Text: For the compounds of the Examples, JAK activity of each of the compounds was verified using the JAK Human TK Kinase Enzymatic Radiometric Kinase Profiler Assay service provided by Eurofins Scientific.
The activity was verified after inducing a reaction at the JAK 1, 2 and 3 active sites using radioactively labeled ATP.

splenocytes [1] = assay: Inhibitory activity on cell proliferation in splenocytes (CCK-8 analysis); type: cell-based, C57BL/6 mouse; conditions: Mus musculus, Splenocyte, Concanavalin A 5 µg/mL, 72 hours, read-out: Inhibitory Activity on Cell Proliferation (%) (Mean±SD)
splenocytes [2] = assay: NO scavenging activity in Concanavalin A-treated splenocytes (Griess assay); type: cell-based, C57BL/6 mouse; conditions: Mus musculus, Splenocyte, Concanavalin A 5 µg/mL, 72 hours, read-out: NO Scavenging Activity (%) (Mean±SD)
Experimental: as §1, §2

Raw 264.7 cell line = assay: NO scavenging activity in LPS-treated immune cells (Griess reagent); type: cell-based; conditions: Mus musculus, RAW264.7, Raw 264.7, LPS 500 ng/mL, 24 hours, read-out: NO Scavenging Activity (%) (Mean±SD)
Experimental: Raw 264.7 cell line was seeded in a 48-well plate at a density of 8×10^4 cells/well, and cultured at 37°C in a DMEM medium including 10% FBS, 100 U/mL of penicillin and 100 µg/mL of streptomycin.
The medium was cultured overnight, and then replaced with a fresh medium including 10 µM of the pharmaceutical composition sensitive to nitrogen monoxide including the compound of each of Examples 1 to 30 and 500 ng/mL of LPS, and the fresh medium was cultured again for another 24 hours.
Lastly, in order to measure the amount of NO produced, the amount of NO2^- present in the cell culture medium was measured using a Griess reagent (sulfanilamide, N-1-naphthylethylenediamine dihydrochloride). Specifically, 100 µL of a Griess reagent was mixed with a mixture solution of 50 µL of the cell culture medium and 50 µL of PBS. The mixture solution was reacted for 10 minutes in a well plate, and absorbance thereof at 540 nm was measured.

[3] = DAF-2 assay of NO scavenging activity (NO donor SNAP); type: biochemical; conditions: DAF-2 10 µM, SNAP 100 µM, PBS, 3 hours, 37°C
Experimental: NO scavenging activity of the pharmaceutical composition sensitive to nitrogen monoxide including the compound according to each of Examples 1 to 22, 29 to 31, and 33 to 35 was evaluated through a DAF-2 assay.
Specifically, a reagent stock solution was made using DMSO (dimethyl sulfoxide) in order to prepare 5 mM of DAF-2, 100 mM of SNAP and 5 mM of the compound synthesized in each of the Examples, and for the reaction, the solution was added to a PBS (phosphate buffered saline) solution so that DAF-2, SNAP and the compound had final concentrations of 10 µM, 100 µM and the concentration of Table 1, respectively, followed by a reaction for 3 hours in a 37°C incubator.

[4] = DAF-2 assay of NO scavenging activity without and with H2O2 (ROS); type: biochemical; conditions: SNAP 100 µM, DAF-2 10 µM, 3 hours, 37°C; for NO Scavenging Activity (%) (Mean±SD) With H2O2: H2O2 1 mM
Experimental: The pharmaceutical composition sensitive to nitrogen monoxide including the compound according to each of Examples 23 to 28 and 32 may have scavenging activity for reactive oxygen species (ROS). NO scavenging activity of the pharmaceutical composition was evaluated through a DAF-2 assay.
Specifically, to a 100 µM solution of SNAP, the compound synthesized in each of the Examples was added at a concentration of the following Table 2, and reacted. Then 10 µM of DAF-2 was added thereto, followed by a reaction for 3 hours in a 37°C incubator.
Additionally, a stock solution of H2O2 (10 M) was added to the reaction solution so that SNAP and H2O2 had final concentrations of 100 µM and 1 mM, respectively. Then, the compound synthesized in each of the Examples was added thereto at a concentration of the following Table 11, followed by a reaction in the same manner, and NO scavenging activity was calculated by Equation 1.

Structure (SMILES) | activity at 10 µM (IFN-γ) [%] | JAK 1 Activity (JAK 1; 0.1 nM) | JAK 1 Activity (JAK 1; 1 nM) | JAK 1 Activity (JAK 1; 10 nM) | JAK 1 Activity (JAK 1; 100 nM) | inhibition at 10 µM (splenocytes [1]) [%] | activity at 10 µM (splenocytes [2]) [%] | activity at 10 µM (Raw 264.7 cell line) [%] | NO Scavenging Activity (%) (Mean±SD) ([3]; compound 1 µM) | NO Scavenging Activity (%) (Mean±SD) ([3]; compound 5 µM) | NO Scavenging Activity (%) (Mean±SD) ([3]; compound 10 µM) | NO Scavenging Activity (%) (Mean±SD) Without H2O2 ([4]; compound 1 µM) | NO Scavenging Activity (%) (Mean±SD) With H2O2 ([4]; compound 1 µM) | NO Scavenging Activity (%) (Mean±SD) Without H2O2 ([4]; compound 5 µM) | NO Scavenging Activity (%) (Mean±SD) With H2O2 ([4]; compound 5 µM) | NO Scavenging Activity (%) (Mean±SD) Without H2O2 ([4]; compound 10 µM) | NO Scavenging Activity (%) (Mean±SD) With H2O2 ([4]; compound 10 µM)
C[C@@H]1CCN(C(=O)CC#N)C[C@@H]1N(C)c1ncnc2c1ccn2C(=O)N(C)CCN(C)C(=O)Nc1cc(N(C)C)ccc1N [Example 21, N-(2-(3-(2-amino-5-(dimethylamino)phenyl)-1-methylureido)ethyl)-4-(((3R,4R)-1-(2-cyanoacetyl)-4-methylpiperidin-3-yl) (methyl)amino)-N-methyl-7H-pyrrolo[2,3-d]pyrimidine-7-carboxamide] | 98.1 ± 0.03 | 97 | 105 | 102 | 85 | 48.3 ± 3.72 | 52.4 ± 0.67 | 61.2 ± 0.15 | 2.57± 1.66 | 38.13 ±1.01 | 66.27 ±0.14 | – | – | – | – | – | –
C[C@@H]1CCN(C(=O)CC#N)C[C@@H]1N(C)c1ncnc2c1ccn2C(=O)N(C)CCN(C)C(=O)Nc1cc(N(C)C)ccc1NC(=O)OCc1ccc(B(O)O)cc1 [Example 23, (4-((((2-(3-(2-(4-(((3R,4R)-1-(2-cyanoacetyl)-4-methylpiperidin-3-yl)(methyl)amino)-N-methyl-7H-pyrrolo[2,3-d]pyrimidine-7-carboxamido)ethyl)-3-methylureido)-4-(dimethylamino)phenyl)carbamoyl)oxy)methyl)phenyl)boronic acid] | 68 ± 0.45 | 94 | 90 | 100 | 83 | 11.8 ± 2.08 | 19.5 ± 0.65 | 16.8 ± 0.7 | – | – | – | 21.08 ±0.77 | 25.76 ±6.11 | 39.33 ±8.29 | 64.84 ±1.94 | 52.96 ±6.23 | 83.96 ±0.29
Cc1ccc(NC(=O)OCc2ccc(B3OC(C)(C)C(C)(C)O3)cc2)c(NC(=O)n2ccc3c(N(C)[C@H]4CN(C(=O)CC#N)CC[C@H]4C)ncnc32)c1 [Example 26, 4-(4,4,5,5-tetramethyl-1,3,2-dioxaborolan-2-yl)benzyl (2-(4-(((3R,4R)-1-(2-cyanoacetyl)-4-methylpiperidin-3-yl) (methyl)amino)-7H-pyrrolo[2,3-d]pyrimidine-7-carboxamido)-4-methylphenyl)carbamate] | 97.4 ± 0.1 | – | – | – | – | 75.6 ± 0.96 | 100 | 73.7 ± 0.33 | – | – | – | – | – | – | – | 42.98 ±2.51 | 92.96 ±0.04
COc1ccc(NC(=O)OCc2ccc(B3OC(C)(C)C(C)(C)O3)cc2)c(NC(=O)n2ccc3c(N(C)[C@H]4CN(C(=O)CC#N)CC[C@H]4C)ncnc32)c1 [Example 27, 4-(4,4,5,5-tetramethyl-1,3,2-dioxaborolan-2-yl)benzyl (2-(4-(((3R,4R)-1-(2-cyanoacetyl)-4-methylpiperidin-3-yl) (methyl)amino)-7H-pyrrolo[2,3-d]pyrimidine-7-carboxamido)-4-methoxyphenyl)carbamate] | 74.6 ± 2.41 | – | – | – | – | 81.1 ± 9.03 | 77.6 ± 1.24 | 59.3 ± 0.06 | – | – | – | – | – | – | – | 59.31 ±0.55 | 97.09 ±0.01
C[C@@H]1CCN(C(=O)CC#N)C[C@@H]1N(C)c1ncnc2c1ccn2C(=O)Nc1cc2c(cc1NC(=O)OCc1ccc(B3OC(C)(C)C(C)(C)O3)cc1)n(C)c(=O)n2C [Example 28, 4-(4,4,5,5-tetramethyl-1,3,2-dioxaborolan-2-yl)benzyl (6-(4-(((3R,4R)-1-(2-cyanoacetyl)-4-methylpiperidin-3-yl) (methyl)amino)-7H-pyrrolo[2,3-d]pyrimidine-7-carboxamido)-1,3-dimethyl-2-oxo-2,3-dihydro-1H-benzo[d]imidazol-5-yl)carbamate] | 100 | – | – | – | – | 80.7 ± 7.12 | 92 ± 0.56 | 49.8 ± 0.43 | – | – | – | 3.73± 0.57 | 76.23 ±0.94 | 13.25 ±0.69 | 98.01 ±0.04 | 14.18 ±0.62 | 98.34 ±0.05
CC[C@@H]1CN(C(=O)NCC(F)(F)F)C[C@@H]1c1cnc2cnc3c(ccn3C(=O)Nc3ccccc3N)n12 [Example 29, N-(2-aminophenyl)-8-((3R,4S)-4-ethyl-1-((2,2,2-trifluoroethyl)carbamoyl)pyrrolidin-3-yl)-3H-imidazo[1,2-a]pyrrolo[2,3-e]pyrazine-3-carboxamide] | 100 | – | – | – | – | 78 ± 6.9 | 88.5 ± 0.47 | 90.1 ± 0.74 | 3.68± 7.63 | 1.71± 4.16 | 25.18 ±3.14 | – | – | – | – | – | –
CC[C@@H]1CN(C(=O)NCC(F)(F)F)C[C@@H]1c1cnc2cnc3c(ccn3C(=O)Nc3ccc(N(C)C)cc3N)n12 [Example 30, N-(2-amino-4-(dimethylamino)phenyl)-8-((3R,4S)-4-ethyl-1-((2,2,2-trifluoroethyl)carbamoyl)pyrrolidin-3-yl)-3H-imidazo[1,2-a]pyrrolo[2,3-e]pyrazine-3-carboxamide] | 91.5 ± 1.37 | – | – | – | – | 55 ± 8.48 | 98.1 ± 0.09 | 91.6 ± 0.68 | 83.14 ±2.29 | 86.44 ±1.93 | 88.19 ±1.75 | – | – | – | – | – | –
